Test results published in patent US20080286752A1, “Methods for the production of HCV, assaying HCV entry, and screening drugs and cellular receptors for HCV” (priority 2005, published 2008).

What was measured:
[1] = tested on: HCV pseudoparticles; conditions: reports; cited from earlier work
[2] = target: T1, HCV E1 and E2 proteins (C22E1E2, genotype 1a) (Hepatitis C virus genotype 1a, UniProt P27958, H297R/K360A/N321D/N391S/R602W/V212I/Y589H); assay type: cell-based
T1 construct: residues 24-215 are E1, and residues 216-577 are E2; expressed in transfected cells; host or cells: 293T effector cells transfected with pcDNA3.1-HE1E2, co-cultured with Huh-7.5 target cells

Sequence | inhibition of transduction with pseudoparticles [1] | effect on HCV E1E2 mediated fusion ([2]; peptide added to cells for an hour before fusion, concentrations up to 10 mM) | inhibition of HCV E1E2 mediated fusion ([2]; peptide added to cells at concentrations of 10 nM or above for an hour before fusion)
SAYQVRNSSGLYHVTNDC | does not | little effect | –
SSGLYHVTNDCPNSSIVY | inhibits | – | ~40%
